Data as given in patent publication US20220412975A1, “CHARACTERIZING MODULATORS OF ADAMTS-7 AND ADAMTS-12” (The Broad Institute, Inc., priority 2019, published 2022).

Columns and labels:
ADAMTS-4 = target: T1, ADAMTS-4 (Homo sapiens, UniProt O75173); experiment: Selectivity FRET assay ADAMTS4; assay type: biochemical; settings: ADAMTS4 50 nM, Dabcyl-[…]-Glu(Edans)-NH2 1 μM, 120 min, 32° C.
T1 construct: purchased R&D 4307-AD
T1 sequence (O75173 213-837): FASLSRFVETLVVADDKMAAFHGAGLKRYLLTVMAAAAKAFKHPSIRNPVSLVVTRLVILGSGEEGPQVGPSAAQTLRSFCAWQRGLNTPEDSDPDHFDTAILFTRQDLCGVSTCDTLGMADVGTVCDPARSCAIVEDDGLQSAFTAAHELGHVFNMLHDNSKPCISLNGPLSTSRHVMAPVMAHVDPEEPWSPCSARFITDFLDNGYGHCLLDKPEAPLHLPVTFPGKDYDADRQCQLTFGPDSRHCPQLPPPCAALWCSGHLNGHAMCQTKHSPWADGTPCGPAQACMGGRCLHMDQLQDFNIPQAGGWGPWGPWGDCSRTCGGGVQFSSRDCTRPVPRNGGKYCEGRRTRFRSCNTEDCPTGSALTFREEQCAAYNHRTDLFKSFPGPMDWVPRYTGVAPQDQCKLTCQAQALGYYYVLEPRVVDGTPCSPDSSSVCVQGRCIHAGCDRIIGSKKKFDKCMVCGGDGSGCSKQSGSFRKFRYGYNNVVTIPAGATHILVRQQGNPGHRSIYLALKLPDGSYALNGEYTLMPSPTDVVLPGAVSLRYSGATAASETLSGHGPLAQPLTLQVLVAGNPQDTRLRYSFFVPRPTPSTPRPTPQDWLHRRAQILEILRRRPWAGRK
Experimental: The respective enzyme (see Table 4 below) was diluted in reaction buffer (50 mM Tris, 2.5 μM ZnCl2, 0.05% BSA, 0.001% Brij, pH 7.5 for ADAM17; 50 mM Tris 7.5, 150 mM NaCl, 10 mM CaCl2, 0.05% Brij for all other enzymes) to the respective concentration and 25 μl were transferred into each well of a 384-well white microtiter plate (Greiner Bio One 781075). 1 μl test compound solution (dissolved in DMSO, at the corresponding concentration) or pure DMSO as a control was added per well. The enzymatic reaction was initiated by addition of 25 μl of the respective concentration of the respective FRET substrate (see Table 4 below) in reaction buffer. The microtiter plate was incubated for 120 min at the temperature of 32° C. The increase of fluorescence intensity was measured in appropriate fluorescence plate reader (e.g. TECAN Ultra) using the respective wavelengths for excitation and emission. IC50 values were calculated from percentage of inhibition of enzyme activity as a function of test compound concentration.
Table 4. Assay conditions for the evaluation of the selectivity of ADAMTS-7 modulators. Abbreviations: Dabcyl: 4-((4-(dimethylamino)phenyl)azo)benzoic acid; Glu(Edans): L-glutamic acid-γ-[2-(1-sulfonyl-5-naphthyl)-aminoethylamide]; Mca: (7-Methoxycoumarin-4-yl)acetyl; Dap(Dnp): (2S)-3-(2,4-dinitroanilino)-2-(9H-fluoren-9-ylmethoxycarbonylamino)propanoic acid; Dpa: N-3-(2, 4-Dinitrophenyl)-L-2,3-diaminopropionyl.
(§1) The assays to determine the IC50 for ADAMTS inhibition were performed as described earlier herein.

ADAMTS-7 = target: T2, ADAMTS-7 (Homo sapiens, UniProt Q9UKP4, A119V/A123T/A127T/A171V/A193G/A200T/A28V/A36P/A42G/A66V/A78S/A97T/D77A/DEL186-188/DEL228-233/E133D/E190K/E213K/E83Q/G114S/G115N/G117S/G196D/G27H/H100Y/H124S/H234Q/K153R/L143F/L192S/L20I/P189H/P201S/P29L/P33S/P79S/Q99P/R118N/R122Q/R174Q/R195Q/R215Q/R218H/R35L/R75A/R76Q/R87Q/R92L/S170E/S199R/S202G/S214H/T110I/T125V/V182M/V208G/V74A/W225K/Y209S); experiment: ADAMTS-7 enzymatic activity FRET assay, testing of inhibitory compounds; assay type: biochemical
T2 construct: rat ADAMTS-7 signal peptide + prodomain (rat 1-217), fusion partner (N); 2xStrep tag (C); 6xHis tag (C); made in house; host or cells: Expi293 cells
T2 sequence (Q9UKP4 with tags, fused parts or gaps with the stated changes): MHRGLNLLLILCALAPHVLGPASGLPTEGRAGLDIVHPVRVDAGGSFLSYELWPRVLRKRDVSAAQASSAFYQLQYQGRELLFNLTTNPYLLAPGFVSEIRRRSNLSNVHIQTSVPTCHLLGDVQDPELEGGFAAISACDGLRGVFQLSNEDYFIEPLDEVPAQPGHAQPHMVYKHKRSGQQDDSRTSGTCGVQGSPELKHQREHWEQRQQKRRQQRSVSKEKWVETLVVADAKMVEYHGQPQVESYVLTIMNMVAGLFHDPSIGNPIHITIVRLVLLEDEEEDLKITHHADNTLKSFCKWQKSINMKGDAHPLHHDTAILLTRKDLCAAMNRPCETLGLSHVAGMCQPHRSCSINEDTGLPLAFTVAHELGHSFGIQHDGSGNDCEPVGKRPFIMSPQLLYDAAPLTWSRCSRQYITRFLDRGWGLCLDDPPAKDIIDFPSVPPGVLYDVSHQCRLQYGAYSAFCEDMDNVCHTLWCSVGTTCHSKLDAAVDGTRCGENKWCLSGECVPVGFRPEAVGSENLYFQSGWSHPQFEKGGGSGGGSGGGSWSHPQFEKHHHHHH
Experimental: Purified recombinant ADAMTS-7 (as of SEQ ID NO: 1 or SEQ ID NO: 2) was diluted in reaction buffer (20 mM HEPES pH 8.0, 150 mM NaCl, 5 mM CaCl2, 0.004% Brij, 10 μM ZnCl2) for a concentration of approximately 20 nM. 25 μl of the solution were transferred into each well of a 384-well white microtiter plate (Greiner Bio-One 781075) and 1 μl test compound solution (modulator/inhibitor dissolved in DMSO, at the corresponding concentration) or pure DMSO as a control were added per well. […] Amino acids […] are derived from Thrombospondin-1 sequence (275-289). An additional carboxyl glutamic acid was added after the QXL520 quencher to increase substrate solubility. The microtiter plate was incubated for 120 min at the temperature of 32° C. The increase of fluorescence intensity was measured in appropriate fluorescence plate reader (e.g. TECAN Ultra) using excitation wavelength of 485 nm and emission wavelength of 520 nm. IC50 values were calculated from percentage of inhibition of ADAMTS-7 activity as a function of test compound concentration. IC50 values derived using functional ADAMTS-7 according to SEQ ID NO: 1 or SEQ ID NO: 2, respectively, were not distinguishable, both laying within the experimental error.
as §1

| IC50 (ADAMTS-4) [nM] | IC50 (ADAMTS-7) [nM] | Compound |
| --- | --- | --- |
| 4690 | 52 | Cn1cc(-c2cc(C(=O)NC[C@@]3(C4CC4)NC(=O)NC3=O)on2)cn1 [Example 12.5, N-{[(4R)-4-cyclopropyl-2,5-dioxoimidazolidin-4-yl]methyl}-3-(1-methyl-1H-pyrazol-4-yl)-1,2-oxazole-5-carboxamide] |
| 24000 | 355 | O=C1NC(=O)[C@](CNC(=O)c2cnn(-c3cnccn3)n2)(C2CC2)N1 [Example 12.2, N-{[(4R)-4-cyclopropyl-2,5-dioxoimidazolidin-4-yl]methyl}-2-(pyrazin-2-yl)-2H-1,2,3-triazole-4-carboxamide] |
| 4750 | 140 | O=C1NC(=O)[C@](CNC(=O)c2cnn(-c3ccc(F)cn3)n2)(C2CC2)N1 [Example 12.1, N-{[(4R)-4-cyclopropyl-2,5-dioxoimidazolidin-4-yl]methyl}-2-(5-fluoropyridin-2-yl)-2H-1,2,3-triazole-4-carboxamide] |
